According to patent US20180148452A1, “TOLL-LIKE RECEPTOR-7 AGONIST” (MEDSHINE DISCOVERY INC., priority 2014, published 2018):
Structures can show the parent of a compound that is named as a salt.

What was measured:
Female Balb/c mice = test: Induction of IFN-α and TNF-α following intranasal dosing in the mouse; assay type: in vivo; conditions: serum, 2 h after single i.n. dose; for IFN-α Conc. (1 mM): 1 mM (0.1 mpk); for IFN-α Conc. (3 mM) / TNF-α Conc. (3 mM): 3 mM (0.3 mpk); for IFN-α Conc. (10 mM) / TNF-α Conc. (10 mM): 10 mM (1 mpk); for IFN-α Conc. (30 mM) / TNF-α Conc. (30 mM): 30 mM (3 mpk)
Experimental: Test 3: Assay for the Induction of Interferon-α (IFN-α) and Tumor Necrosis Factor-α (TNF-α) Following Intranasal Dosing in the Mouse
Female Balb/c mice (18-20 g) were anesthetized with isoflurane and then administered intranasally (20 μL in total between the nostrils) with compounds dissolved in saline with 0.2% Tween 80. After two hours, mice were euthanased by CO2 inhalation and blood samples were taken by cardiac puncher. Then blood samples were centrifuged and serum was collected. Serum samples were tested by ELISA with appropriate dilution according to the manufacturer's instructions. In this model, compounds could induce different IFN-α/TNF-α levels related to the dose of the compounds, while no IFN-α/TNF-α was detected in vehicle treated controls.

hTLR7 = biological target: T1, hTLR7 (Homo sapiens, UniProt Q9NYK1); test: TLR7 agonist screening protocol in vitro (HEK-Blue-hTLR7 reporter, QUANTI-Blue); assay type: cell-based; conditions: HEK-Blue-hTLR7 cells, 24 hours incubation, alkaline phosphatase OD650
T1 construct: expressed in transfected cells; host or cells: HEK-Blue-hTLR7 cells (HEK293-derived SEAP reporter line)
T1 sequence (Q9NYK1 27-1049): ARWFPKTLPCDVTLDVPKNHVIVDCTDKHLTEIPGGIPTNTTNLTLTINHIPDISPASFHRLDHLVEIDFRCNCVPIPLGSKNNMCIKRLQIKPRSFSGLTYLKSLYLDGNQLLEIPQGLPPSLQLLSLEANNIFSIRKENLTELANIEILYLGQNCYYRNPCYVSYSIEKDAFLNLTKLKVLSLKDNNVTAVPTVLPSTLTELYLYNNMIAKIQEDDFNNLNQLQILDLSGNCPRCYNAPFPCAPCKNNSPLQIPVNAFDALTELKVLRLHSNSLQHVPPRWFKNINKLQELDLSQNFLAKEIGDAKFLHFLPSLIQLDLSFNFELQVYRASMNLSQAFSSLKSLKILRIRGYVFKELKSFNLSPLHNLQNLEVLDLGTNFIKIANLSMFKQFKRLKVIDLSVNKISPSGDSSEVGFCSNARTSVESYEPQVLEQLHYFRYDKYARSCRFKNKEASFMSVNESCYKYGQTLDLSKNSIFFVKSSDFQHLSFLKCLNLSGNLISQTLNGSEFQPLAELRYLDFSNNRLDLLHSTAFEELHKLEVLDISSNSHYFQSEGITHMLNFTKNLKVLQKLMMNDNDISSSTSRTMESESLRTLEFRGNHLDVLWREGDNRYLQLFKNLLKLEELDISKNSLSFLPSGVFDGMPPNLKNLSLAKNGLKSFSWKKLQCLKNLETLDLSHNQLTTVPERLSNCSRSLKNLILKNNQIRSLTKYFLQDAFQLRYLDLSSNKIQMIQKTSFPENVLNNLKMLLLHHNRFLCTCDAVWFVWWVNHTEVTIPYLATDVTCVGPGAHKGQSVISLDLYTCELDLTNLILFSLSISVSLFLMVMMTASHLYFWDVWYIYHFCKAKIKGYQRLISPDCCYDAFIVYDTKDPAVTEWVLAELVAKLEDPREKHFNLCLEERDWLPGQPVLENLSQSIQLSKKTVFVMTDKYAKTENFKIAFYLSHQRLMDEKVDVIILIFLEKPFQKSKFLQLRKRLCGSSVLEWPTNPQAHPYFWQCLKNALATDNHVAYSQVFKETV
Experimental: Test 1: TLR7 Agonist Screening Protocol In Vitro
1. Preparation for 96-well plate: Compounds are 3 folds serial diluted with DMSO by POD, start from 10 mM, 10 concentrations (column 2 to 11, duplicated), 1 μL DMSO per well. Take 1 μL of 5 mM R848 as positive control (column 12) and 1 μL of DMSO as negative control (column 1).
2. Harvest cells and adjust cell suspension to the density of 250,000 cells/ml.
3. 200 μL cells are seeded into the cell culture plate containing compounds with the cell density of 50,000 cells/well, the final DMSO concentration is 0.5%.
4. Incubate the plates containing the cells and compounds at 37° C., 5% CO2 for 24 hours.
5. After 24 hours' incubation, fetch 20 μL supernatant from each well to transfer to another transparent 96-well cell culture plate. Add 180 μL QUANTI-Blue to each well of the cell culture plate containing 20 μL supernatant, and incubate at 37° C., 5% CO2 for 1 hour.
6. After 1 hour, determine alkaline phosphatase levels in 20 μL supernatant by using ELIASA reading at OD650.
7. Data analysis by Prism software, EC50 of each compound was obtained.

| Compound | EC50 (hTLR7) | further results |
| --- | --- | --- |
| CCC[C@H](C)Oc1nc(N)c2[nH]c(=O)n(CCCCCN3CCCCC3)c2n1.Cl [GSK-2245035, reference compound] | 1 to 100 nM | IFN-α Conc. (1 mM) (Female Balb/c mice): <100 pg/mL; IFN-α Conc. (3 mM) (Female Balb/c mice): 1000 pg/mL; TNF-α Conc. (3 mM) (Female Balb/c mice): <10 pg/mL; IFN-α Conc. (10 mM) (Female Balb/c mice): 3500 pg/mL; TNF-α Conc. (10 mM) (Female Balb/c mice): 50 pg/mL; IFN-α Conc. (30 mM) (Female Balb/c mice): 4500 pg/mL; TNF-α Conc. (30 mM) (Female Balb/c mice): 400 pg/mL |
| CCCCOc1nc(N)c2[nH]c(C#N)c(CCCCCCN3CCCC3)c2n1 [Example 19, 4-amino-2-butoxy-7-(6-(tetrahydropyrrol-1-yl)hexyl)-5H-pyrrolo[3,2-d]pyrimidine-6-carbonitrile formate] | 1 to 100 nM | – |
| CCCCOc1nc(N)c2[nH]c(C#N)c(CCCCN3CCCCC3)c2n1 [Example 3, 4-amino-2-butoxy-7-(4-(piperidin-1-yl)butyl)-5H-pyrrolo[3,2-d]pyrimidine-6-carbonitrile formate] | 1 to 100 nM | – |
| CCCCOc1nc(N)c2[nH]c(C#N)c(CCCCCN3CCOCC3)c2n1 [Example 4, 4-amino-2-butoxy-7-(5-morpholin-1-yl)pentyl)-5H-pyrrolo[3,2-d]pyrimidine-6-carbonitrile formate] | 1 to 100 nM | – |
| CCCCOc1nc(N)c2[nH]c(C#N)c(CCCCCN3CC4CC3CN4C)c2n1 (stereo not shown) [Example 7, 4-amino-2-butoxy-7-(5-(5-methyl-2,5-diazabicyclo[2.2.1]heptan-2-yl)pentyl)-5H-pyrrolo[3,2-d]pyrimidine-6-carbonitrile formate] | 250 to 500 nM | – |
| CCCCOc1nc(N)c2[nH]c(C#N)c(CCCCCN3CCCC3)c2n1 [Example 20, 4-amino-2-butoxy-7-(5-(tetrahydropyrrol-1-yl)pentyl)-5H-pyrrolo[3,2-d]pyrimidine-6-carbonitrile hydrochloride] | 1 to 100 nM | – |
| CCCCOc1nc(N)c2[nH]c(C#N)c(CCCCCN3CC4CCC(C3)N4C)c2n1 [Example 21, 4-amino-2-butoxy-7-(5-(8-methyl-3,8-diazabicyclo[3.2.1]octan-3-yl)pentyl)-5H-pyrrolo[3,2-d]pyrimidine-6-carbonitrile formate] | 100 to 250 nM | – |
| CCCCOc1nc(N)c2[nH]c(C#N)c(CCCCCN3CCCC3C(=O)N(C)C)c2n1 (stereo not shown) [Example 14, 4-amino-2-butoxy-7-(5-(2-(N,N′-dimethylformamido)-pyrrolidin-1-yl)pentyl)-5H-pyrrolo[3,2-d]pyrimidin-6-nitrile formate] | 1 to 100 nM | – |
| CCCCOc1nc(N)c2[nH]c(C#N)c(CCCCCN3CC4(COC4)C3)c2n1 [Example 5, 7-(5-(2-oxa-6-azaspiro[3.3]heptan-6-yl)pentyl)-4-amino-2-butoxy-5H-pyrrolo[3,2-d]pyrimidine-6-carbonitrile formate] | 1 to 100 nM | – |
| CCCCOc1nc(N)c2[nH]c(C#N)c(CCCCCN3CCN(C)CC3=O)c2n1 [Example 11, 4-amino-2-butoxy-7-(5-(4-methyl-2-oxopiperazin-1-yl)pentyl)-5H-pyrrolo[3,2-d]pyrimidine-6-carbonitrile formate] | 100 to 250 nM | – |
| CCC[C@H](C)Oc1nc(N)c2[nH]c(C#N)c(CCCCCN3CCCCC3)c2n1 [Example 2, (S)-4-amino-(1-methylbutoxy)-7-(5-(piperidin-1-yl)pentyl)-5H-pyrrolo[3,2-d]pyrimidine-6-carbonitrile formate] | 1 to 100 nM | – |
| CCCCOc1nc(N)c2[nH]c(C#N)c(CCCC3CCN(C)CC3)c2n1 [Example 24, 4-amino-2-butoxy-7-(3-(1-methylpiperidin-4-yl)propyl)-5H-pyrrolo[3,2-d]pyrimidine-6-carbonitrile formate] | 1 to 100 nM | – |
| CCCCOc1nc(N)c2[nH]c(C#N)c(CCCCCN3CCC[C@@H]3C(N)=O)c2n1 [Example 13] | 1 to 100 nM | – |
| CCCCOc1nc(N)c2[nH]c(C#N)c(CCCCCNC(C(N)=O)C(C)C)c2n1 (stereo not shown) [Example 18, 4-amino-2-butoxy-7-(5-((1-formamido-1′-isopropyl)amino)pentyl)-5H-pyrrolo[3,2-d]pyrimidine-6-carbonitrile hydrochloride] | 1 to 100 nM | – |
| CCCCOc1nc(N)c2[nH]c(C#N)c(CCCCC3CCCCN3C(=O)NC)c2n1 (stereo not shown) [Example 23, 4-amino-2-butoxy-7-(4-(1-(1-N-methylcarbonyl)piperidin-2-yl)butyl)-5H-pyrrolo[3,2-d]pyrimidin-6-nitrile] | 100 to 250 nM | – |
| CCCCOc1nc(N)c2[nH]c(C#N)c(CCCCCN3CCCC3C(=O)N3CCN(C)CC3)c2n1 (stereo not shown) [Example 15, 4-amino-2-butoxy-7-(5-((2-(4-methylpiperazine-1-carbonyl)pyrrolidin-1-yl)pentyl)-5H-pyrrolo[3,2-d]pyrimidine-6-carbonitrile formate] | 100 to 250 nM | – |
| CCCCOc1nc(N)c2[nH]c(C#N)c(CCCCCN3CCCCC3)c2n1 [Example 1, 4-Amino-2-butoxy-7-(5-(piperidin-1-yl)pentyl)-5H-pyrrolo[3,2-d]pyrimidine-6-carbonitrile formate] | 1 to 100 nM | IFN-α Conc. (1 mM) (Female Balb/c mice): 500 pg/mL; IFN-α Conc. (3 mM) (Female Balb/c mice): 4500 pg/mL; TNF-α Conc. (3 mM) (Female Balb/c mice): 100 pg/mL; IFN-α Conc. (10 mM) (Female Balb/c mice): 7500 pg/mL; TNF-α Conc. (10 mM) (Female Balb/c mice): 300 pg/mL; IFN-α Conc. (30 mM) (Female Balb/c mice): 7000 pg/mL; TNF-α Conc. (30 mM) (Female Balb/c mice): 500 pg/mL |
| CCCCOc1nc(N)c2[nH]c(C#N)c(CCCCCN3CCCCC3C(N)=O)c2n1 (stereo not shown) [Example 17, hydrochloride] | 1 to 100 nM | – |
| CCCCOc1nc(N)c2[nH]c(C#N)c(CCCCC3CCCCN3)c2n1 (stereo not shown) [Example 22, 4-amino-2-butoxy-7-(4-(piperidin-2-yl)butyl)-5H-pyrrolo[3,2-d]pyrimidine-6-carbonitrile formate] | 100 to 250 nM | – |
| CCCCOc1nc(N)c2[nH]c(C#N)c(CCCCCN3CCC(F)(F)CC3)c2n1 [Example 9, 4-amino-2-butoxy-7-(5-(4,4′-difluoro-1-piperidinyl)pentyl)-5H-pyrrolo[3,2-d]pyrimidine-6-carbonitrile formate] | 100 to 250 nM | – |
| CCCCOc1nc(N)c2[nH]c(C#N)c(CCCCCN3CCCC3C(=O)NCC3CC3)c2n1 (stereo not shown) [Example 16, formate] | 100 to 250 nM | – |
| CCCCOc1nc(N)c2[nH]c(C#N)c(CCCCCN3CCN(C)CC3)c2n1 [Example 6, 4-amino-2-butoxy-7-(5-(4-methylpiperazin-1-yl)pentyl)-5H-pyrrolo[3,2-d]pyrimidine-6-carbonitrile formate] | 1 to 100 nM | – |
| CCCCOc1nc(N)c2[nH]c(C#N)c(CCCCCN(CC)CC)c2n1 [Example 8, 4-amino-2-butoxy-7-(5-(diethylamino)pentyl)-5H-pyrrolo[3,2-d]pyrimidine-6-carbonitrile formate] | 1 to 100 nM | – |
